According to PubChem BioAssay (NCI):
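96-well plates; 48 h exposure; 5 concentrations. Endpoints by linear interpolation between flanking doses. Not reached: highest tested concentration assigned. At the GI50, growth is halved. TGI marks complete inhibition of growth.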

Experiments:
Test in all cases: NCI-60 cell line screen, 48 h; in the data active means GI50 below about 0.43 µM; inactive means the rest
[1] = test system: NCI-H23 lung
[2] = test system: UACC-257 melanoma
[3] = test system: IGROV1 ovarian
[4] = test system: SW-620 colon
[5] = test system: T-47D breast
[6] = test system: ACHN renal
[7] = test system: NCI-H522 lung
[8] = test system: U251 CNS
[9] = test system: CAKI-1 renal
[10] = test system: OVCAR-3 ovarian
[11] = test system: UO-31 renal
[12] = test system: SK-MEL-28 melanoma
[13] = test system: RXF 393 renal
[14] = test system: A549 NSCLC
[15] = test system: HS 578T breast

COc1cc([C@@H]2c3cc4c(cc3[C@@H](NC(=O)NO)[C@H]3COC(=O)[C@H]23)OCO4)cc(OC)c1O
inactive: GI50 [1] 9.31 µM | GI50 [6] 6.04 µM
> 100 µM: TGI [1] | TGI [2] | TGI [3] | TGI [4] | TGI [5] | TGI [7] | TGI [8] | TGI [9]

COC(=O)/C(=N\N)C(C(=O)C(=O)Nc1nc(=S)[nH][nH]1)c1nc2ccc([N+](=O)[O-])cc2[nH]c1=O (stereo not given)
> 100 µM: TGI [1] | TGI [2] | TGI [3] | TGI [4] | TGI [10] | TGI [11] | TGI [12] | TGI [6] | TGI [13] | TGI [14] | TGI [7] | TGI [8] | TGI [9]

CCC(=O)CCC1=Nc2nnc(CCCCc3nnc4n3C(=O)C(CCC(=O)CC)=N4)n2C1=O
> 100 µM: TGI [1] | TGI [2] | TGI [3] | TGI [4] | TGI [10] | TGI [11] | TGI [12] | TGI [6] | TGI [13] | TGI [14] | TGI [7] | TGI [9]

COC(=O)C(C#N)C1NC(=O)c2ccccc21 (stereo not given)
> 100 µM: TGI [1] | TGI [2] | TGI [3] | TGI [4] | TGI [10] | TGI [11] | TGI [12] | TGI [6] | TGI [13] | TGI [14] | TGI [7] | TGI [8]

O=C(NCc1ccccc1)C1C(=O)C(=O)N(Cc2ccccc2)C1=O (stereo not given)
> 100 µM: TGI [1] | TGI [2] | TGI [3] | TGI [4] | TGI [10] | TGI [11] | TGI [12] | TGI [6] | TGI [13] | TGI [14] | TGI [7] | TGI [8] | TGI [9]

C/C=C1/C(=Cc2[nH]c(C=c3[nH]/c(=C/C4=NC(=O)C(CC)=C4C)c(C)c3CCC(=O)O)c(CCC(=O)O)c2C)NC(=O)C1C (stereo not given)
39.7 µM: TGI [7]
> 50 µM: TGI [1] | TGI [3] | TGI [4] | TGI [10] | TGI [12] | TGI [6] | TGI [13] | TGI [8] | TGI [9]
24.9 µM: TGI [2]
20.1 µM: TGI [11]
27 µM: TGI [14]

COc1cc2cnc3c4cc(OC)c(OC(C)C)cc4ccc3c2cc1OC
> 100 µM: TGI [1] | TGI [2] | TGI [3] | TGI [4] | TGI [10] | TGI [11] | TGI [12] | TGI [6] | TGI [13] | TGI [14] | TGI [7] | TGI [8] | TGI [9]

CN1N=C(c2ccccc2)c2cc(Cl)ccc2N=C1N/N=C/c1ccc(N(C)C)cc1
> 100 µM: TGI [1] | TGI [2] | TGI [3] | TGI [4] | TGI [10] | TGI [11] | TGI [12] | TGI [5] | TGI [6] | TGI [13] | TGI [14] | TGI [7] | TGI [8] | TGI [9]

CN1C(=O)N(c2nc3ccccc3[nH]2)C(C)(C)C1=O
> 100 µM: TGI [1] | TGI [2] | TGI [3] | TGI [4] | TGI [10] | TGI [11] | TGI [12] | TGI [6] | TGI [13] | TGI [14] | TGI [7] | TGI [8]

O=C(CCN1CCCC1)c1ccc(Oc2ccc(F)cc2)cc1
30.1 µM: TGI [9]
> 100 µM: TGI [1] | TGI [2] | TGI [3] | TGI [4] | TGI [10] | TGI [15] | TGI [11] | TGI [12] | TGI [6] | TGI [14] | TGI [8]
74.4 µM: TGI [13]

C/C(=N/N)c1sc(-c2nc(C)c(/C(C)=N\N)s2)nc1C
> 100 µM: TGI [1] | TGI [2] | TGI [3] | TGI [4] | TGI [10] | TGI [11] | TGI [12] | TGI [6] | TGI [13] | TGI [14] | TGI [7] | TGI [8] | TGI [9]

COc1cc2c(cc1OC)[C@H]1C(COC(=O)Nc3ccccc3)CN1CC2 (stereo not given in full)
> 100 µM: TGI [1] | TGI [3] | TGI [4] | TGI [10] | TGI [11] | TGI [12] | TGI [6] | TGI [13] | TGI [14] | TGI [7] | TGI [8] | TGI [9]

N[C@H]1CCN(c2c(F)cc3c(=O)c(C(=O)O)cn4c3c2Oc2c-4ccc3c2ccc2ccccc23)C1
> 48.8 µM: TGI [3]
16.6 µM: TGI [13]
> 24.4 µM: TGI [6]
> 100 µM: TGI [4] | TGI [10] | TGI [12] | TGI [5] | TGI [14]
> 25.5 µM: TGI [9]
> 71.3 µM: TGI [11]
> 71.7 µM: TGI [1]
6.76 µM: TGI [8]

O=C(O)CCC(NC(=O)c1ccc(CNc2nc3cc(C(F)(F)F)ccc3nc2C(=O)O)cc1)C(=O)O (stereo not given)
> 100 µM: TGI [1] | TGI [2] | TGI [3] | TGI [4] | TGI [10] | TGI [11] | TGI [12] | TGI [5] | TGI [6] | TGI [13] | TGI [14] | TGI [7] | TGI [8] | TGI [9]

CCOC(=O)c1ccn2c(c1)c(C#N)c1nc3ccccc3nc12
> 100 µM: TGI [1] | TGI [2] | TGI [4] | TGI [10] | TGI [11] | TGI [12] | TGI [6] | TGI [14] | TGI [7] | TGI [8] | TGI [9]
59.8 µM: TGI [3]

Nn1c(CCCCCCCCc2n[nH]c(=S)n2N)n[nH]c1=S
> 100 µM: TGI [1] | TGI [2] | TGI [3] | TGI [4] | TGI [10] | TGI [11] | TGI [12] | TGI [5] | TGI [6] | TGI [13] | TGI [14] | TGI [7] | TGI [8] | TGI [9]

CCOC(=O)c1ccc(N(CCOS(=O)(=O)c2ccc(C)cc2)CCOS(=O)(=O)c2ccc(C)cc2)cc1
> 100 µM: TGI [1] | TGI [2] | TGI [3] | TGI [4] | TGI [10] | TGI [15] | TGI [11] | TGI [6] | TGI [13] | TGI [14] | TGI [7] | TGI [9]
46.6 µM: TGI [8]
